This is an account of results in US20240342148A1, “METHODS OF TREATING FACIOSCAPULOHUMERAL MUSCULAR DYSTROPHY WITH LOSMAPIMOD” (Fulcrum Therapeutics, Inc., priority 2021, published 2024).

In series [1] the test system is p38a/b MAPK pathway. Kind of series: Target engagement in blood: pHSP27/HSP27total ELISA after ex vivo sorbitol stimulation. More on the design: species or system human. As to the method: Blood samples for target engagement were collected at D1 and Wk16 or Wk36, at the same pre- and post-dose time points as PK samples.
Blood samples for measurement of total heat shock protein 27 (HSP27total) and phosphorylated heat shock protein 27 (pHSP27) were collected into EDTA-containing tubes. Two mL of whole blood was stimulated ex vivo with sorbitol for 30 minutes at room temperature to induce phosphorylation of HSP27 as a measure of p38a/b MAPK activity. Sorbitol stimulation activates the p38a/b MAPK pathway in blood and allows for more robust detection of inhibition of the p38a/b MAPK pathway by losmapimod. Subsequently, samples were lysed on ice and lysates frozen at −80° C. pHSP27 and HSP27total were measured by a validated enzyme-linked immunosorbent assay method (Cambridge Biomedical Inc., Boston, MA, USA and Immunologix, Tampa, FL, USA). Inter- and intra-assay precision for both pHSP27 and HSP27total met the preapproved criteria of <25% CV having been run in 5 replicates with the LLOQ established for pHSP27 at 20.7 ng/ml and ULOQ at 470.1 ng/ml and the LLOQ established for HSP27total at 105.2 ng/ml and ULOQ at 2168.1 ng/mL.

In series [2] the test system is subjects with FSHD. Kind of series: Safety and tolerability in the RCT. Type of series: in vivo, human. Particulars: 15 mg BID up to 48 weeks. As to the method:
All safety analyses were performed using the safety analysis set based on as-treated treatment group. Safety analyses included summaries of TEAEs, clinical laboratory, vital signs and ECGs.

For series [3], the system named is DUX4-regulated gene transcripts. Kind of series: DUX4-regulated transcript analysis by RT-qPCR in muscle biopsies (primary endpoint). The settings on record: log 2 scale. Type of series: in vivo, human. As to the method:
All efficacy analyses were performed using the full analysis set (FAS), according to the randomized treatment group. The primary endpoint, change from baseline in DUX4 activity (DUX4 Score 1), was analyzed using the analysis of covariance approach, with treatment group and FSHD repeat number category (1 to 3 repeats versus 4 to 9 repeats) as fixed effects, and baseline DUX4 Score 1 as a covariate. Multiplicity adjustment was not performed, as the primary endpoint was not met.
Muscle needle biopsies were performed using the Bergstrom needle or fine needle at D1 and Wk16, or Wk36 if the muscle biopsy could not be performed at Wk16. The choice of the muscle(s) to be biopsied was determined by the investigator, informed by MRI taken during screening. […] The bilateral vastus lateralis, vastus medialis, lateral gastrocnemius, medial gastrocnemius, and tibialis anterior were evaluated for eligibility by MRI using a central reader. […]
The muscle tissue collected at each muscle needle biopsy (D1 and Wk16 or Wk36) was analyzed for DUX4 activity using a molecular panel of DUX4-regulated gene transcripts (CCNA1, KHDC1L, MBD312, PRAMEF6, SLC34A2 and ZSCAN4, with TBP, HMBS, CDKN1B as reference genes). Raw Cycle Thresholds (Cts) from quantitative polymerase chain reaction (qPCR) were determined for DUX4 regulated genes using a validated assay (Fluidigm). […]
In general terms: Real-time PCR tracks product formation cycle by cycle.

As to `Cc1c(F)cc(C(=O)NC2CC2)cc1-c1ccc(C(=O)NCC(C)(C)C)cn1` [losmapimod, 6-(5-cyclopropylcarbamoyl-3-fluoro-2-methyl-phenyl)-N-(2,2-dimethylpropyl-)-nicotinamide], the “Reduction of pHSP27/HSP27total compared to placebo at Cmax” value in series [1] is on record as 48.0-70.2%. The Safety and tolerability result in series [2] was “favorable safety and tolerability”. The “Change in DUX4 activity, difference losmapimod vs placebo” value in series [3] (95% CI −1.04, 1.89, p=0.56) amounted to 0.43. For the same molecule, the “Change from baseline in DUX4 activity” value in series [3] (combined Wk16 or Wk36 muscle biopsies) is 0.83.
